Test [1] has as its target T1, IRAK4 (Homo sapiens (Human), UniProt Q9NWZ3). The experiment in a line: Biochemical Z'-Lyte FRET assay for IRAK4 kinase inhibition. The note with it: 2 nM enzyme, 1 mM ATP, 2 μM substrate. The protocol: Biochemical Assay for IRAK4 Kinase Inhibition.
A Z′-Lyte assay based on a fluorescence resonance energy transfer (FRET) readout was developed for measuring IRAK4-dependent phosphorylation of a FRET-peptide substrate as described by Thermo Fisher Scientific (Grand Island, N.Y.). At a starting concentration of 1.5 mM, the identified compounds were serially diluted with 100% dimethyl sulfoxide (DMSO) in 3-fold increments, into Greiner bio-one 96-well plates (cat. #: 650201, Greiner bio-one, Monroe, N.C.). Compounds were then transferred to intermediate Greiner bio-one 96-well plates and diluted 10-fold with Kinase assay buffer (25 mM HEPES, pH 7.5, 10 mM MgCl2, 10 mM MnCl2, 1 mM EGTA, and 0.01% Brij-35, 2 mM DTT). Three μL of the serially diluted compounds were then transferred in duplicate to low-volume 384-well black proxiplates (cat. #: 6008269; Perkin Elmer, Akron, Ohio), to give duplicate twelve-point concentration curves. Six μl of a 2.5× solution of IRAK4 enzyme (cat #: 40064, BPS Bioscience, San Diego, Calif.) in kinase buffer was added to each well, followed by a 10 minutes pre-incubation step. Reactions were initiated by adding 6 μl of a 2.5× substrate mix of ATP and Z′-Lyte Ser/Thr 7 peptide (cat. #: PV3180, Thermo Fisher Scientific, Grand Island, N.Y.) and proceeded at room temperature for 1 hour. The final concentration of key reagents in the 15 uL kinase reactions were 2 μM substrate, 2 nM enzyme, and 1 mM ATP, with dose responses starting at 30 μM compound. At the end of the kinase reactions, 5 μl of developing solution (as instructed in for cat. #: PV3180, Thermo Fisher Scientific, Grand Island, N.Y.) was added to each well and incubated at room temperature for 1 hour. All wells were read on an Envision 2105 Multilabel fluorescence plate reader (Perkin Elmer, Waltham, Mass.) at 400 nm excitation and 460 nm/530 nm emission. Plus and minus 100% inhibition controls were used to calculate percent inhibition and IC50 curves were generated using Graphpad Prism (La Jolla, Calif.).

Test [2] concerns the target T1, IRAK4. Nature of the test: Western blot assay for assessing degradation of IRAK4 in MCF7 cells. Format: cell-based. The note with it: Table 5, IRAK4 degradation, 24 hour incubation; for DC50: read-out: IRAK4 DC50; for Dmax: read-out: IRAK4 Dmax (%). The protocol: Western Blot Assay for Assessing Degradation of IRAK4.
MCF7 cells, purchased from ATCC (Manassas, Va.), were used at a passage range of 2-19. Cells were seeded at 50% confluency in 96-well plates at 180 μl/well in cell media (Dulbecco's Modified Eagle medium/nutrient F-12 Ham-10% Fetal Bovine Serum) and incubated overnight. The next morning, compounds were serially diluted and added (20 μl into 180 μl media) at a final DMSO concentration of 0.1%. Cells were rinsed with cell media and replaced with compounds in media, followed by incubation overnight. After a 24 hour incubation with compound, cell were harvested (90-100% confluent at harvest). Cells were then washed once with 100 μl of Dulbecco's hosphate-buffered saline and then lysed with 40 μl of lysis buffer (1×RIPA+HALT protease inhibitor+HALT phosphatase inhibitor) on ice for 10 minutes. Lysates were then cleaned by filtration in 1.2 µm filter plates followed by western blotting. For each sample, 30 μl of lysate were added to 10 μl of 4×LDS sample buffer, then denatured at 95° C. for 5 minutes in the thermal cycler and placed on ice. Fifteen μL of each sample were then loaded on 4-15% Tris/Glycine gels and run for 25 minutes at 250 (constant) volts in 1× Tris/Glycine buffer. Protein was transferred from gels to nitrocellulose using a BioRad Turbo dry-transfer unit with the Turbo/midi default program. All blots were rinsed with ddH2O and blocked for 1 hour at room temperature in 5% bovine serum albumin (BSA) in tris-buffered saline-Tween 20 (TBS-T) (0.1%) on rocker. Blots were exposed to primary antibody in 5% BSA in TBS-T (0.1%) overnight at 4° C. on rocker. Primary antibodies, diluted 1:1000 in […], were as follows: anti-IRAK4 (cat. #: ab119942, Abcam, Cambridge, Mass.), anti-IRAK1 (cat. #: CST 4504S, Cell Signaling Technology, Danvers, Mass.), and anti-Beta-actin (Cat. #: ab8227, Abcam, Cambridge, Mass.). Blots were then washed with TBS-T (0.1%) three times for 5 minutes on a rocker at room temperature. Secondary antibody (1:18,000 anti-rabbit-HRP and/or anti-mouse-HRP in 5% BSA in TBST (0.1%) was then added, and blots incubated at room temperature rocker for 1 hour. Blots were washed 3 times in TBS-T (0.1%) for 5 minutes at room temperature on the rocker. Signal was developed with Femto Max substrate for 5 minutes and blots read on a ChemiDoc. Percent degradation was assessed by comparing IRAK4 signal in compound vs. DMSO treated lysates.
In general terms: A western blot detects proteins with antibodies after separation by electrophoresis.

pIC50: −log10 of the molar value. Where only a bound is given, the exact number is not on record here.

T1 sequence (Q9NWZ3 whole entry): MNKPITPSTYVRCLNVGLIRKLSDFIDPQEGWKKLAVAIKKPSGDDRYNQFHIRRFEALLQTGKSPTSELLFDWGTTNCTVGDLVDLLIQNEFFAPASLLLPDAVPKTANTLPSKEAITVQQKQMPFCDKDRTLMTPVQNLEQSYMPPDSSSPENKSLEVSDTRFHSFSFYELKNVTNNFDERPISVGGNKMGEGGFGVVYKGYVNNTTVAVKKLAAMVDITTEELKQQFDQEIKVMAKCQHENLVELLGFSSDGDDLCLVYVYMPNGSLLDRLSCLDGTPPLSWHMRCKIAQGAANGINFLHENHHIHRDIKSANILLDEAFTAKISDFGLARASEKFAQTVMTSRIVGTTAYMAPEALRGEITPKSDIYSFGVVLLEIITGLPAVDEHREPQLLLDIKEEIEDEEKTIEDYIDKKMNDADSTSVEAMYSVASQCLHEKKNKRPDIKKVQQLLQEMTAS

What is called pIC50 is −log10 of the IC50, conventionally taken in molar units. High values mean a small IC50, low ones a large IC50. A word on the DC50: it is the midpoint of the concentration-degradation curve. Turning to `O=C1CCC(N2C(=O)c3ccc(OCCOCCOCCOC[C@H]4CC[C@@H](n5c(NC(=O)c6cccc(C(F)(F)F)c6)nc6cc(F)ccc65)CC4)cc3C2=O)C(=O)N1` (stereo partly shown) [compound 47, N-(1-((1s,4s)-4-((2-(2-(2-((2-(2,6-dioxopiperidin-3-yl)-1,3-dioxoisoindolin-5-yl)oxy)ethoxy)ethoxy)ethoxy)methyl)cyclohexyl)-5-fluoro-1H-benzo[d]imidazol-2-yl)-3-(trifluoromethyl)benzamide], in test [1], the pIC50 was not above 6.00. In addition, the DC50 in test [2] was not below 1000 nM.

As usually defined, the Dmax is the greatest extent of degradation seen. `CC1CCC(n2c(NC(=O)c3cccc(C(F)(F)F)c3)nc3cc(CN4CCN(CCOCCOc5ccc6c(c5)C(=O)N(C5CCC(=O)NC5=O)C6=O)CC4)ccc32)CC1` (stereo not shown) [compound 7, N-(5-((4-(2-(2-((2-(2,6-dioxopiperidin-3-yl)-1,3-dioxoisoindolin-5-yl)oxy)ethoxy)ethyl)piperazin-1-yl)methyl)-1-((1s,4s)-4-methylcyclohexyl)-1H-benzo[d]imidazol-2-yl)-3-(trifluoromethyl)benzamide]: the negative logarithm of the IC50 (pIC50) in test [1] was 6.52 to 7.00. Besides, in test [2], the DC50 was not below 1000 nM and the Dmax fell in the range of 30 to 50%.

As to `Cc1ncsc1-c1ccc(CNC(=O)[C@@H]2C[C@@H](O)CN2C(=O)[C@@H](NC(=O)COCCOCCOCCN2CCN(Cc3ccc4c(c3)nc(NC(=O)c3cccc(C(F)(F)F)c3)n4C3CCC(CO)CC3)CC2)C(C)(C)C)cc1` (mixture of isomers) [compound 13, (2S,4R)-1-((S)-2-(tert-butyl)-14-(4-((1-((1SR,4SR)-4-(hydroxymethyl)cyclohexyl)-2-(3-(trifluoromethyl)benzamido)-1H-benzo[d]imidazol-5-yl)methyl)piperazin-1-yl)-4-oxo-6,9,12-trioxa-3-azatetradecanoyl)-4-hydroxy-N-(4-(4-methylthiazol-5-yl)benzyl)pyrrolidine-2-carboxamide], the pIC50 in test [1] is 6.00 to 6.52. Besides, in test [2], the DC50 is not below 1000 nM.

Regarding `Cc1ncsc1-c1ccc(CNC(=O)[C@@H]2C[C@@H](O)CN2C(=O)[C@@H](NC(=O)COCCN2CCN(Cc3ccc4c(c3)nc(NC(=O)c3cccc(C(F)(F)F)c3)n4C3CCC(CO)CC3)CC2)C(C)(C)C)cc1` (mixture of isomers) [compound 11, (2S,4R)-4-hydroxy-1-((S)-2-(2-(2-(4-((1-((1SR,4SR)-4-(hydroxymethyl)cyclohexyl)-2-(3-(trifluoromethyl)benzamido)-1H-benzo[d]imidazol-5-yl)methyl)piperazin-1-yl)ethoxy)acetamido)-3,3-dimethylbutanoyl)-N-(4-(4-methylthiazol-5-yl)benzyl)pyrrolidine-2-carboxamide], the pIC50 in test [1] is 6.00 to 6.52. Further, in test [2], the DC50 was not below 1000 nM and the Dmax is more than 70%.

On to `N#Cc1ccc2ncnc(N[C@H]3CC[C@@H](N4CCN(S(=O)(=O)CCOCCOc5ccc6c(c5)C(=O)N(C5CCC(=O)NC5=O)C6=O)CC4)CC3)c2c1` (stereo partly shown) [compound 35], for which the pIC50 in test [1] was not above 6.00. The 50% degradation concentration (DC50) in test [2] is not below 1000 nM.

In test [1], `O=C1CCC(N2C(=O)c3ccc(OCCOCCOCCN4CCN(Cc5ccc6c(c5)nc(NC(=O)c5cccc(C(F)(F)F)c5)n6-c5ccccc5)CC4)cc3C2=O)C(=O)N1` (stereo not shown) [compound 53, N-(5-((4-(2-(2-(2-((2-(2,6-dioxopiperidin-3-yl)-1,3-dioxoisoindolin-5-yl)oxy)ethoxy)ethoxy)ethyl)piperazin-1-yl)methyl)-1-phenyl-1H-benzo[d]imidazol-2-yl)-3-(trifluoromethyl)benzamide] showed a pIC50 not above 6.00. Besides, the DC50 in test [2] is not below 1000 nM.

`O=C1CCC(N2C(=O)c3ccc(OCCN4CCC(CN5CCN(Cc6ccc7c(c6)nc(NC(=O)c6cccc(C(F)(F)F)c6)n7[C@H]6CC[C@@H](CO)CC6)CC5)CC4)cc3C2=O)C(=O)N1` (stereo partly shown) [compound 10] had a pIC50 in test [1] of more than 7.52. The DC50 in test [2] lay within 30 to 100 nM.

These data come from patent US11065231B2, “Compounds and methods for the targeted degradation of interleukin-1 receptor- associated kinase 4 polypeptides” (Arvinas Operations, Inc., priority 2017, dated 2021).
